Data taken from patent US20020107193A1, “Therapeutic uses for IP3 receptor-mediated calcium channel modulators” (priority 2000, published 2002).

Columns and labels:
[1] = test system: IP3 receptors on microsomes; assay: Microsome extract (MSE) effect on cytoplasmic NF-κB binding activity; format: biochemical, rat
Experimental: Cerebral cortices from adult female Sprague-Dawley rats were homogenized (20 strokes at 300 rpm) with a Teflon homogenizer in ice-cold buffer containing 1 mM EDTA, 0.32 M sucrose, 0.1 mM dithiothreitol and 1 mM HEPES as described previously (Chen et al., 1998, Diabetes 47:874-81) and cytoplasmic and microsome fractions were isolated by differential centrifugation. Briefly, tissue fragments and cellular debris were removed by centrifugation at 500 g for 10 min and supernatants were centrifuged at 20,000 g for 20 min to pellet intact mitochondria and nuclei. The supernatant was then centrifuged at 100,000 g for 1 h in order to obtain the cytoplasmic fraction and the microsomal pellet enriched in endoplasmic reticulum and golgi membranes. Microsome extracts (MSE) were prepared by suspending microsomes in 1:100 v/v ice-cold buffer and centrifuging at 100,000× g for 1 hr. Microsomes were then re-suspended in 1:2 v/v volume buffer and treated as described below. At the end of the treatment, the suspension was centrifuged at 100,000 g for 1 h, and supernatants were used as MSE. For experiments involving incubation of MSE with cytoplasmic extract, 3 μl of MSE were added to 10 μl cytoplasmic extract and mixtures were incubated at room temperature for 1 h.
[…] After 1 h at room temperature, samples were examined for NF-κB binding activity.
Indeed, the role calcium plays in this paradigm seems to be as an intraluminal signal.

[2] = test system: macrophage-tropic CCR5-utilizing HIV CSF; assay: p24 antigen in media of HIV-infected peripheral blood lymphocytes; format: cell-based; conditions: for p24 levels, of controls: day 2
Experimental: Peripheral blood lymphocytes, previously stimulated for 72 hours with PHA, were divided into 3 groups, designated T-HIV (RPMI-10 media containing 1 μM XeC and 0.1% DMSO), N-HIV (RPMI-10 media containing 0.1% DMSO) and HIV (RPMI-10 media). […] The cells were then infected with a macrophage-tropic CCR5-utilizing HIV CSF for 3 hours at 37° and then washed to remove excess virus. All groups were cultured in RPMI-10% FCS+10U/ml IL-2. Referring to FIGS. 7-11, cells were incubated at 37° C. in 5% CO2. At stated time points shown in the aforementioned figures, spent media was removed and replace with fresh media. The media was tested for the presence of p24 antigen as a surrogate for HIV infection and replication. […] The significance of using the CCR5 utilizing macrophage-tropic virus JR-CSF is that this is the type of virus generally transmitted sexually.

IP3 receptor = conditions: Gafni et al., 1997; cited from earlier work

SMILES: C1CCC[C@H]2CCCN3CC[C@@H](CCCCCC[C@@H]4CCCN5CC[C@@H](CC1)O[C@@H]45)O[C@@H]23 [XeC, Xestospongin C]
- NF-κB stimulating activity of microsomes pretreated then given calcium ([1]; XeC pretreatment followed by calcium): produced no NF-κB stimulating activity
- effect of microsome pretreatment on IP3-induced NF-κB stimulating properties of MSE ([1]; XeC pretreatment of microsomes): completely abolished this effect
- p24 antigen as surrogate for HIV infection and replication, relative to DMSO ([2]; 1 μM XeC, 0.1% DMSO, overall statement): inhibition
- p24 levels, of controls ([2]; X1: XeC once 2 hours pre-infection, FIG. 7): ~50%
- p24 levels ([2]; X1: XeC once 2 hours pre-infection, day 3, FIG. 7): increased to approximately control levels
- p24 levels ([2]; X1: XeC once pre-infection, day 3, third experiment, FIG. 10): reduced relative to D1 and D2
- p24 levels ([2]; X1: XeC once pre-infection, day 4, third experiment, FIG. 10): increased to near control levels
- p24 levels ([2]; X1: XeC once pre-infection, subsequent experiment, FIG. 8): no effect was seen
- p24 levels, of controls ([2]; X2: XeC 2 hours pre-infection and 6 hours post-infection, FIG. 7): approximately 80%
- p24 levels ([2]; X2: XeC pre- and post-infection, day 3, FIG. 7): increased to approximately control levels
- p24 levels ([2]; X2: XeC pre- and post-infection, day 3, third experiment, FIG. 10): reduced relative to D1 and D2
- p24 levels ([2]; X2: XeC pre- and post-infection, day 4, FIG. 9): increase to near wild-type levels
- p24 levels, of the DMSO controls ([2]; X2: XeC pre- and post-infection, day 4, third experiment, FIG. 10): approximately 50%
- p24 levels ([2]; X2: XeC pre- and post-infection, days 2 and 3, subsequent experiment, FIG. 8): greatly reduced
- block of IP3-mediated calcium release (IP3 receptor): potent blockers
